Drawing on BindingDB's records for doi:10.1002/cbic.201100007 (Yale University, 2011), this text covers Ki for two compounds.

The assay concerns the target T1, dCTP pyrophosphatase 1 (Homo sapiens, UniProt Q9H773).
T1 sequence (Q9H773 whole entry): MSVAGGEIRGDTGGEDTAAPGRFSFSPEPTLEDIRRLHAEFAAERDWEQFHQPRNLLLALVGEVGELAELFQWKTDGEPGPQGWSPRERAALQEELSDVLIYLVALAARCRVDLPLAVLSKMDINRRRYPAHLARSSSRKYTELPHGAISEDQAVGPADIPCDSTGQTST
In words: Enzyme Assay. The following applies: pH 7.4; 25 °C. On the procedure: Kinetic enzyme assays were performed in a 384-well, white plates (Nunc) on a Wallac Victor 2 plate reader using human DCTPP1 and triptolide and analogues.

In general, Ki refers to a dissociation constant, usually derived from enzyme kinetics or from competition with a known ligand. Read a low Ki as a stronger hold on the target.

In turn, `CC(C)[C@]1(O)[C@H](O)[C@@H]2O[C@]23[C@]2(O[C@H]2CC2C4=C(CC[C@@]23C)C(=O)OC4)[C@@H]1O` (some centres not stated) [Triptriolide, 5] registered a Ki of 85 µM.
For `CC(C)[C@]12O[C@H]1[C@@H]1O[C@@]13[C@@]1(C)CCC4=C(COC4=O)[C@]1(O)C[C@@H]1O[C@@]13C2=O` [5-Hydroxytriptonide, 6] the value was 356 µM.
